Biological target: GluA1o-γ8 (GRIA1o-CACNG8 fusion construct; TARP γ8 dependent AMPA receptor) (Homo sapiens (Human), UniProt P42261+Q8WXS5)
Experiment: Calcium flux assay (FLIPR), inhibition of glutamate response of GluA1o-γ8 channel
Assay type: cell-based
Settings: HEK293 cells stably expressing GRIA1o-CACNG8 fusion; 15 μM glutamate; pIC50 = negative log of IC50 in molar; read-out: GluR1-γ8 (pIC50) (converted)
In short: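 Potency is the midpoint of a four-parameter logistic fit to control-normalized FLIPR calcium responses elicited by 15 μM glutamate. Stable HEK293 cells carried a fused GluA1o-γ8 construct and were preincubated with compound and calcium dye in pH 7.4 HEPES buffer.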

Chain of GluA1o-γ8 (GRIA1o-CACNG8 fusion construct; TARP γ8 dependent AMPA receptor) (P42261 other isoform, or with tags, fused parts or gaps): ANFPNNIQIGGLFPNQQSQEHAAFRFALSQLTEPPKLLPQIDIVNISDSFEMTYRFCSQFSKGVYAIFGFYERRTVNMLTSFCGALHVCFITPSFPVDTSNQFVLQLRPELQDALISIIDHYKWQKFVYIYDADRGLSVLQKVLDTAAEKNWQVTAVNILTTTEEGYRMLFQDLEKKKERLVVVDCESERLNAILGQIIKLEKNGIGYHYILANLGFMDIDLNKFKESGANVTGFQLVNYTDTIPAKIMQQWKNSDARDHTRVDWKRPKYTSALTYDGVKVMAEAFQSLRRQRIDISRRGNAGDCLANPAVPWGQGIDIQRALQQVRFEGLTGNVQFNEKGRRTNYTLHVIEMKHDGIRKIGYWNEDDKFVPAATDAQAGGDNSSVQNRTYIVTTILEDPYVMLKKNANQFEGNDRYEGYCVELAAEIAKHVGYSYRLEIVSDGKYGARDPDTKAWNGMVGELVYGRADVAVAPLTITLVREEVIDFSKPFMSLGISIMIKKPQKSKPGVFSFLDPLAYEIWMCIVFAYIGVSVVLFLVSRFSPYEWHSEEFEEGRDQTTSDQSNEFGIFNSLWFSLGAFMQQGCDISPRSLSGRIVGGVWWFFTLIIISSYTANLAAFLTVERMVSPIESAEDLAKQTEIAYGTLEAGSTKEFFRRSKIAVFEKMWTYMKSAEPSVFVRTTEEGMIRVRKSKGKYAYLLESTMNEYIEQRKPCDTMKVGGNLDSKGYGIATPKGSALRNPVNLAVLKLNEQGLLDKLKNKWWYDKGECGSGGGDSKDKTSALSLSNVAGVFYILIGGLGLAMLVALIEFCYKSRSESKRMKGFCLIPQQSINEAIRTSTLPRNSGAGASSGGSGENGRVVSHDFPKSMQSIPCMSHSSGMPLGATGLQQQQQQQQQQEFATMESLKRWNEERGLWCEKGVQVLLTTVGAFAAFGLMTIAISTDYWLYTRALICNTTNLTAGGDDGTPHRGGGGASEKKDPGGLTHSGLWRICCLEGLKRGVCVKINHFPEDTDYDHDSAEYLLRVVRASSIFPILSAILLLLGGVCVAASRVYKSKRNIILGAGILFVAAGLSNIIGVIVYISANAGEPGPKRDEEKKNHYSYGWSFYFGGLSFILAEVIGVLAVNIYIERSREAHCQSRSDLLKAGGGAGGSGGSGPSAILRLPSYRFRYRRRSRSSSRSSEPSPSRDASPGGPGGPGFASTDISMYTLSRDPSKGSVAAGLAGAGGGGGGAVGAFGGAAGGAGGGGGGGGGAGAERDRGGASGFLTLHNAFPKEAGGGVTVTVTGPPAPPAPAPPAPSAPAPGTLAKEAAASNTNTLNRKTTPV

First: N#Cc1ccc(-c2nc3c(N4CCNC(=O)C4)nccn3c2-c2ccc3[nH]c(=O)[nH]c3c2)cc1 [Example 211, 4-[3-(2-Oxo-1,3-dihydrobenzimidazol-5-yl)-8-(3-oxopiperazin-1-yl)imidazo[1,2-a]pyrazin-2-yl]benzonitrile]
Second: Nc1nccn2c(-c3ccc4[nH]c(=O)[nH]c4c3)c(-c3ccc(F)cc3)nc12 [Example 87, 5-[8-Amino-2-(4-fluorophenyl)imidazo[1,2-a]pyrazin-3-yl]-1,3-dihydrobenzimidazol-2-one]
The IC50 of the first is 100-fold lower: 3.98 nM for the first, 398 nM for the second.

Going from `O=C1Cc2cc(-c3c(C4CCCC4)nn4c(N5CC(O)C5)nccc34)ccc2N1` [Example 205, 5-[2-Cyclopentyl-7-(3-hydroxyazetidin-1-yl)pyrazolo[1,5-c]pyrimidin-3-yl]indolin-2-one] to `O=C1Cc2cc(-c3c(C4CCCC4)nn4c(N5CC(F)C5)nccc34)ccc2N1` [Example 196, 5-[2-Cyclopentyl-7-(3-fluoroazetidin-1-yl)pyrazolo[1,5-c]pyrimidin-3-yl]indolin-2-one], the IC50 falls from 631 nM to 158 nM (4-fold).

Compared with `O=C1Cc2cc(-c3c(-c4ccc(F)cc4)nc4c(N5CC[C@H](O)[C@H](F)C5)nccn34)ccc2N1` (relative stereo) [Example 73, (cis)-5-[8-(3-Fluoro-4-hydroxy-1-piperidyl)-2-(4-fluorophenyl)imidazo[1,2-a]pyrazin-3-yl]indolin-2-one], `O=C1Cc2cc(-c3c(-c4ccc(F)cc4)nc4c(N5CCC(O)C5)nccn34)ccc2N1` (centres unmarked) [Example 41, 5-[2-(4-Fluorophenyl)-8-(3-hydroxypyrrolidin-1-yl)imidazo[1,2-a]pyrazin-3-yl]indolin-2-one] is 2-fold higher in IC50: 0.316 nM for the first, 0.631 nM for the second.

Going from `O=C1Cc2cc(-c3c(C(=O)c4ccccc4)nc4c(N5CCC(O)CC5)nccn34)ccc2N1` [Example 154, 5-[2-Benzoyl-8-(4-hydroxy-1-piperidyl)imidazo[1,2-a]pyrazin-3-yl]indolin-2-one] to `O=C1Cc2cc(-c3c(C(=O)c4ccccc4)nc4c(N5CCOCC5)nccn34)ccc2N1` [Example 153, 5-(2-Benzoyl-8-morpholino-imidazo[1,2-a]pyrazin-3-yl)indolin-2-one], the IC50 falls from 1.58 nM to 0.316 nM (5-fold).

First: O=C(c1ccccc1)c1nc2c(N3CCOCC3)nccn2c1-c1ccc(O)cc1 [Example 151, [3-(4-Hydroxyphenyl)-8-morpholino-imidazo[1,2-a]pyrazin-2-yl]-phenyl-methanone]
Second: Oc1ccc(-c2c(Cc3cccc(F)c3)nc3c(N4CCOCC4)nccn23)cc1 [Example 96, 4-[2-[(3-Fluorophenyl)methyl]-8-morpholino-imidazo[1,2-a]pyrazin-3-yl]phenol]
The IC50 of the first is 1.6-fold lower: 12.6 nM for the first, 20 nM for the second.

First: O=C1Cc2cc(-c3c(C4CCC4)nc4c(N5CCOCC5)nccn34)ccc2N1 [Example 90, 5-(2-Cyclobutyl-8-morpholino-imidazo[1,2-a]pyrazin-3-yl)indolin-2-one]
Second: CC(C)(C)c1nc2c(N3CCC(=O)CC3)nccn2c1-c1ccc2c(c1)CC(=O)N2 [Example 220, 5-[2-tert-Butyl-8-(4-oxo-1-piperidyl)imidazo[1,2-a]pyrazin-3-yl]indolin-2-one]
The IC50 of the first is 3.2-fold higher: 200 nM for the first, 63.1 nM for the second.

First: O=C1NCc2cc(-c3c(-c4ccc(F)cc4)nc4c(N5CCOCC5)nccn34)ccc2N1 [Example 120, 6-[2-(4-Fluorophenyl)-8-morpholino-imidazo[1,2-a]pyrazin-3-yl]-3,4-dihydro-1H-quinazolin-2-one]
Second: O=C1Cc2cc(-c3c(-c4ccc(F)cc4)nc4c(N5CCCC5)nccn34)ccc2N1 [Example 45, 5-[2-(4-Fluorophenyl)-8-pyrrolidin-1-yl-imidazo[1,2-a]pyrazin-3-yl]indolin-2-one]
The IC50 of the first is 100-fold higher: 100 nM for the first, 1 nM for the second.

Compared with `O=C1Cc2cc(-c3c(-c4ccccc4)nc4c(N5CC(F)C5)nccn34)ccc2N1` [Example 81, 5-[8-(3-Fluoroazetidin-1-yl)-2-phenyl-imidazo[1,2-a]pyrazin-3-yl]indolin-2-one], `O=C1Cc2cc(-c3c(-c4ccccc4)nc4c(N5CC6(CC6)C5)nccn34)ccc2N1` [Example 80, 5-[8-(5-Azaspiro[2.3]hexan-5-yl)-2-phenyl-imidazo[1,2-a]pyrazin-3-yl]indolin-2-one] is 1.6-fold higher in IC50: 0.398 nM for the first, 0.631 nM for the second.

First: CC(=O)N[C@@H]1CCN(c2nccn3c(-c4ccc5c(c4)CC(=O)N5)c(-c4ccc(F)cc4)nc23)C1 (single isomer, unassigned) [Example 150]
Second: O=C1Cc2cc(-c3c(-c4ccc(F)cc4)nc4c(N5CC[C@H](O)C5)nccn34)ccc2N1 (single isomer, unassigned) [Example 53, (S*)-5-[2-(4-Fluorophenyl)-8-(3-hydroxypyrrolidin-1-yl)imidazo[1,2-a]pyrazin-3-yl]indolin-2-one]
The IC50 of the first is 2-fold higher: 3.16 nM for the first, 1.58 nM for the second.

First: O=c1[nH]c2ccc(-c3c(C4CC4)nc4cnc(C(F)(F)F)cn34)cc2s1 [Example 216, 6-[2-Cyclopropyl-6-(trifluoromethyl)imidazo[1,2-a]pyrazin-3-yl]-3H-1,3-benzothiazol-2-one]
Second: O=c1[nH]c2ccc(-c3c(C4CCC4)nn4cnc(C(F)(F)F)cc34)cc2s1 [Example 229, 6-[2-Cyclobutyl-5-(trifluoromethyl)pyrazolo[1,5-c]pyrimidin-3-yl]-3H-1,3-benzothiazol-2-one]
The IC50 of the first is 32-fold higher: 501 nM for the first, 15.8 nM for the second.

Going from `CC1(O)CCN(c2nccn3c(-c4ccc5c(c4)CC(=O)N5)c(-c4ccc(F)cc4)nc23)CC1` [Example 68, 5-[2-(4-Fluorophenyl)-8-(4-hydroxy-4-methyl-1-piperidyl)imidazo[1,2-a]pyrazin-3-yl]indolin-2-one] to `O=C1Cc2cc(-c3c(-c4ccc(F)cc4)nc4c(N5CC[C@@H](O)C5)nccn34)ccc2N1` (single isomer, unassigned) [Example 52, (R*)-5-[2-(4-Fluorophenyl)-8-(3-hydroxypyrrolidin-1-yl)imidazo[1,2-a]pyrazin-3-yl]indolin-2-one], the IC50 rises from 0.1 nM to 1.58 nM (16-fold).

First: O=C1Cc2cc(-c3c(-c4ccccc4)nc4cnc(C(F)(F)F)cn34)ccc2N1 [Example 218, 5-[2-Phenyl-6-(trifluoromethyl)imidazo[1,2-a]pyrazin-3-yl]indolin-2-one]
Second: O=C1Cc2cc(-c3c(-c4ccccc4)nc4cnccn34)ccc2N1 [Example 134, 5-(2-Phenylimidazo[1,2-a]pyrazin-3-yl)indolin-2-one]
The IC50 of the first is 1.6-fold lower: 100 nM for the first, 158 nM for the second.

Going from `CC(C)c1nn2c(N3CCOCC3)nccc2c1-c1ccc2[nH]c(=O)sc2c1` [Example 240, 6-(2-Isopropyl-7-morpholino-pyrazolo[1,5-c]pyrimidin-3-yl)-3H-1,3-benzothiazol-2-one] to `CC(C)c1nn2c(N3CCOCC3)nccc2c1-c1ccc2[nH]ncc2c1` [Example 238, 4-[3-(1H-Indazol-5-yl)-2-isopropyl-pyrazolo[1,5-c]pyrimidin-7-yl]morpholine], the IC50 rises from 15.8 nM to 398 nM (25-fold).

Compared with `CC(C)(C)c1nn2cnccc2c1-c1ccc2c(c1)CC(=O)N2` [Example 165, 5-(2-tert-Butylpyrazolo[1,5-c]pyrimidin-3-yl)indolin-2-one], `CNc1nccc2c(-c3ccc4c(c3)CC(=O)N4)c(-c3ccc(F)cc3)nn12` [Example 171, 5-[2-(4-Fluorophenyl)-7-(methylamino)pyrazolo[1,5-c]pyrimidin-3-yl]indolin-2-one] is lower in IC50: > 10000 nM for the first, 12.6 nM for the second.

Compared with `O=C1Cc2cc(-c3c(-c4ccccc4)nc4c(N5CCC(CCF)CC5)nccn34)ccc2N1` [Example 77, 5-[8-[4-(2-Fluoroethyl)-1-piperidyl]-2-phenyl-imidazo[1,2-a]pyrazin-3-yl]indolin-2-one], `O=C1Cc2cc(-c3c(C(=O)c4ccccc4)nc4c(N5CCS(=O)(=O)CC5)nccn34)ccc2N1` [Example 157, 5-[2-Benzoyl-8-(1,1-dioxo-1,4-thiazinan-4-yl)imidazo[1,2-a]pyrazin-3-yl]indolin-2-one] is 6.3-fold higher in IC50: 0.398 nM for the first, 2.51 nM for the second.

Compared with `O=C1Cc2cc(-c3c(-c4ccc(F)cc4)nn4c(N5CC(F)(F)C5)nccc34)ccc2N1` [Example 176, 5-[7-(3,3-Difluoroazetidin-1-yl)-2-(4-fluorophenyl)pyrazolo[1,5-c]pyrimidin-3-yl]indolin-2-one], `O=C1CN(c2nccc3c(-c4ccc5c(c4)CC(=O)N5)c(-c4ccc(F)cc4)nn23)CCN1` [Example 168, 5-[2-(4-Fluorophenyl)-7-(3-oxopiperazin-1-yl)pyrazolo[1,5-c]pyrimidin-3-yl]indolin-2-one] is 2.5-fold lower in IC50: 3.16 nM for the first, 1.26 nM for the second.

Compared with `O=C1Cc2cc(-c3c(-c4ccc(F)cc4)nc4cnccn34)ccc2N1` [Example 135, 5-(2-(4-Fluorophenyl)imidazo[1,2-a]pyrazin-3-yl)indolin-2-one], `O=C1Cc2cc(-c3c(-c4ccc(F)cc4)nc4c(N5CC(F)(F)C5)nccn34)ccc2N1` [Example 60, 5-[8-(3,3-Difluoroazetidin-1-yl)-2-(4-fluorophenyl)imidazo[1,2-a]pyrazin-3-yl]indolin-2-one] is 63-fold lower in IC50: 100 nM for the first, 1.58 nM for the second.

Compared with `N#Cc1ccc(-c2nc3c(N4CCOCC4)nccn3c2-c2ccc(O)cc2)cc1` [Example 95, 4-[3-(4-Hydroxyphenyl)-8-morpholino-imidazo[1,2-a]pyrazin-2-yl]benzonitrile], `CC1COCCN1c1nccn2c(-c3ccc4c(c3)CC(=O)N4)c(-c3ccc(F)cc3)nc12` (centres unmarked) [Example 39, 5-[2-(4-Fluorophenyl)-8-(3-methylmorpholin-4-yl)imidazo[1,2-a]pyrazin-3-yl]indolin-2-one] is 40-fold lower in IC50: 31.6 nM for the first, 0.794 nM for the second.

Going from `CC(=O)N1CCN(c2nccn3c(-c4ccc5[nH]ncc5c4)c(Cc4ccccc4)nc23)CC1` [Example 18, 1-[4-[2-Benzyl-3-(1H-indazol-5-yl)imidazo[1,2-a]pyrazin-8-yl]piperazin-1-yl]ethanone] to `O=S1(=O)Cc2cc(-c3c(-c4ccc(F)cc4)nc4c(N5CCC(O)CC5)nccn34)ccc2N1` [Example 119, 1-[3-(2,2-Dioxo-1,3-dihydro-2,1-benzothiazol-5-yl)-2-(4-fluorophenyl)imidazo[1,2-a]pyrazin-8-yl]piperidin-4-ol], the IC50 rises from 0.794 nM to 3.16 nM (4-fold).

From patent US10513523B2, “Imidazopyrazines and pyrazolopyrimidines and their use as AMPA receptor modulators” (Janssen Pharmaceutica NV, priority 2015, dated 2019)
